pIC50: −log10 of the molar value. Structures can show the parent of a compound that is named as a salt.
Target: T1, full length SGK1 (Homo sapiens, UniProt O00141)
T1 construct: 125 μM full length SGK1 (Life Technologies Part #PR7358A); purchased Life Technologies PR7358A
T1 sequence (O00141 1-431): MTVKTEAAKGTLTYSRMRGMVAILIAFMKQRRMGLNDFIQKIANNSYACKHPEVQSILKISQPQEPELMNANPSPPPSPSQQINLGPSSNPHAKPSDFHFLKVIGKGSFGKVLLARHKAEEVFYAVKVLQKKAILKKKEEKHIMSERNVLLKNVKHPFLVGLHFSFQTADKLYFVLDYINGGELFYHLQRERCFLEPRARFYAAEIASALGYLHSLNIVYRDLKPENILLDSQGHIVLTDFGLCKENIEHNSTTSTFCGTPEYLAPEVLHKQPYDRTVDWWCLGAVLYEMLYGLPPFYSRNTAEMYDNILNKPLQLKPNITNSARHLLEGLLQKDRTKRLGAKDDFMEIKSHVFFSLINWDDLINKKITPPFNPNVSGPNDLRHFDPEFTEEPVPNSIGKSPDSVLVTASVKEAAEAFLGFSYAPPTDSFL
Experiment: SGK1 inhibition Assay A (Caliper LabChip electrophoretic separation of fluorescent peptide substrate and phosphorylated product)
Type: biochemical
Settings: Assay A; 20 μM ATP, 40 min incubation; read-out: SGK1 IC50

pIC50 | Compound
6.58 | CC(=O)N1CC=C(c2cc(N3CCC[C@@H](NC(=O)N4CCCC4)C3)c3c(N)ncnn23)C1 [Example 876, (R)-N-(1-(7-(1-acctyl-2,5-dihydro-1H-pyrrol-3-yl)-4-aminopyrrolo[2,1-f][1,2,4]triazin-5-yl)piperidin-3-yl)pyrrolidine-1-carboxamide]
8.22 | CN1CCC(Oc2cc(C3CC3)sc2C(=O)N[C@@H]2CCCN(c3cc(-c4ccc(C#N)nc4)n4ncnc(N)c34)C2)CC1 [Example 381, (R)-N-(1-(4-amino-7-(6-cyanopyridin-3-yl)pyrrolo[2,1-f][1,2,4]triazin-5-yl)piperidin-3-yl)-5-cyclopropyl-3-((1-methylpiperidin-4-yl)oxy)thiophene-2-carboxamide]
6.83 | Nc1ncnn2c(-c3ccc(=O)n(C(F)F)c3)cc(N3CCC[C@@H](NC(=O)c4ccc(C(F)F)s4)C3)c12 [Example 527, (R)-N-(1-(4-amino-7-(1-(difluoromethyl)-6-oxo-1,6-dihydropyridin-3-yl)pyrrolo[2,1-f][1,2,4]triazin-5-yl)piperidin-3-yl)-5-(difluoromethyl)thiophene-2-carboxamide]
8.10 | CC(=O)N1CC=C(c2cc(N3CCC[C@@H](NC(=O)c4ccc(-c5cn[nH]c5)s4)C3)c3c(N)ncnn23)C1 [Example 550, (R)-N-(1-(7-(1-acetyl-2,5-dihydro-1H-pyrrol-3-yl)-4-aminopyrrolo[2,1-f][1,2,4]triazin-5-yl)piperidin-3-yl)-5-(1H-pyrazol-4-yl)thiophene-2-carboxamide]
8.70 | CN(C)CCOc1cc(C2CC2)sc1C(=O)N[C@@H]1CCCN(c2cc(-c3ccc(C#N)nc3)n3ncnc(N)c23)C1 [Example 372, (R)-N-(1-(4-amino-7-(6-cyanopyridin-3-yl)pyrrolo[2,1-f][1,2,4]triazin-5-yl)piperidin-3-yl)-5-cyclopropyl-3-(2-(dimethylamino)ethoxy) thiophene-2-carboxamide]
8.15 | COC(=O)N1CC=C(c2cc(N3CCC[C@@H](NC(=O)c4sc5ccccc5c4OC4CCN(C(C)C)CC4)C3)c3c(N)ncnn23)C1 [Example 659, methyl (R)-3-(4-amino-5-(3-(3-((1-isopropylpiperidin-4-yl)oxy)benzo[b]thiophene-2-carboxamido)piperidin-1-yl)pyrrolo[2,1-f][1,2,4]triazin-7-yl)-2,5-dihydro-1H-pyrrole-1-carboxylate]
8.30 | CC(C)N1CCC(Oc2cc(C3CC3)sc2C(=O)N[C@@H]2CCCN(c3cc(-c4ccc(C#N)nc4)n4ncnc(N)c34)C2)CC1 [Example 382, (R)-N-(1-(4-amino-7-(6-cyanopyridin-3-yl)pyrrolo[2,1-f][1,2,4]triazin-5-yl)piperidin-3-yl)-5-cyclopropyl-3-((1-isopropylpiperidin-4-yl)oxy)thiophene-2-carboxamide]
7.66 | CS(=O)(=O)c1ccc(-c2cc(N3CCC[C@@H](NC(=O)c4ccn[nH]4)C3)c3c(N)ncnn23)cc1 [Example 38, (R)-N-(1-(4-amino-7-(4-(methylsulfonyl)phenyl)pyrrolo[2,1-f][1,2,4]triazin-5-yl)piperidin-3-yl)-1H-pyrazole-5-carboxamide]
7.72 | CN(C)CCOc1cc(Cl)sc1C(=O)N[C@@H]1CCCN(c2cc(-c3ccc(-n4cncn4)nc3)n3ncnc(N)c23)C1 [Example 190, (R)-N-(1-(7-(6-(1H-1,2,4-triazol-1-yl)pyridin-3-yl)-4-aminopyrrolo[2,1-f][1,2,4]triazin-5-yl)piperidin-3-yl)-5-chloro-3-(2-(dimethylamino)ethoxy) thiopbene-2-carboxamide]
7.40 | CN(C)CCOc1c(C(=O)N[C@@H]2CCCN(c3cc(-c4ccc(C(N)=O)nc4)n4ncnc(N)c34)C2)sc2ccncc12 [Example 670, (R)-N-(1-(4-amino-7-(6-carbamoylpyridin-3-yl)pyrrolo[2,1-f] [1,2,4]triazin-5-yl)piperidin-3-yl)-3-(2-(dimethylamino)ethoxy)thieno [3,2-c]pyridine-2-carboxamide]

The next lines start with the compound.

Compound | pIC50
Nc1ncnn2c(C3=CCN(C(=O)[C@H]4CCCCN4)C3)cc(N3CCC[C@@H](NC(=O)c4ccc(Cl)s4)C3)c12 [Example 892, N-((R)-1-(4-amino-7-(1-((R)-piperidine-2-carbonyl)-2,5-dihydro-1H-pyrrol-3-y1)pyrrolo[2,1-f][1,2,4]triazin-5-yl)piperidin-3-y1)-5-chlorothiophene-2-carboxamide, TFA] | 7.82
Nc1ncnn2c(-c3cncnc3)cc(N3CCC[C@@H](NC(=O)c4sc(C(F)F)cc4N4CC5(COC5)C4)C3)c12 [Example 314, (R)—N-(1-(4-amino-7-(pyrimidin-5-yl)pyrrolo[2,1-f][1,2,4]triazin-5-yl)piperidin-3-yl)-5-(difluoromethyl)-3-(2-oxa-6-azaspiro[3.3]heptan-6-yl)thiophene-2-carboxamide] | 6.43
COC(=O)N1CC=C(c2cc(N3CCC[C@@H](NC(=O)c4sc(C(F)F)cc4OC4COC4)C3)c3c(N)ncnn23)C1 [Example 434, methyl (R)-3-(4-amino-5-(3-(5-(difluoromethyl)-3-(oxetan-3-yloxy)thiophene-2-carboxamido)piperidin-1-yl)pyrrolo[2,1-f][1,2,4]triazin-7-yl)-2,5-dihydro-1H-pyrrole-1-carboxylate] | 8.00
CS(=O)(=O)c1ccc(-c2cc(N3CCC[C@@H](NC(=O)c4cccc(-c5cnco5)c4)C3)c3c(N)ncnn23)cc1 [Example 51, (R)-N-(1-(4-amino-7-(4-(methylsulfonyl)phenyl)pyrrolo[2,1-f][1,2,4]triazin-5-yl)piperidin-3-yl)-3-(oxazol-5-yl)benzamide] | 7.89
Nc1ncnn2c(C3=CCN(C(=O)[C@@H]4CCOC4)C3)cc(N3CCC[C@@H](NC(=O)c4ccc(Cl)s4)C3)c12 [Example 895, N-((R)-1-(4-amino-7-(1-((R)-tetrahydrofuran-3-carbonyl)-2,5-dihydro-1H-pyrrol-3-yl)pyrrolo[2,1-f][1,2,4]triazin-5-yl)piperidin-3-y1)-5~ chlorothiophene-2-carboxamide] | 8.30
Nc1ncnn2c(-c3ccnc(C(F)F)c3)cc(N3CCC[C@@H](NC(=O)c4sc(C(F)F)cc4OCCN4CCOCC4)C3)c12 [Example 337, (R)—N-(1-(4-amino-7-(2-(difluoromethyl)pyridin-4-yl)pyrrolo[2,1-f][1,2,4]triazin-5-yl)piperidin-3-yl)-5-(difluoromethyl)-3-(2-morpholinoethoxy)thiophene-2-carboxamide] | 7.85
CS(=O)(=O)c1ccc(-c2cc(N3CCC[C@H](C(=O)Nc4nccs4)C3)c3c(N)ncnn23)cc1 [Example 103, (S)-1-(4-amino-7-(4-(methylsulfonyl)phenyl)pyrrolo[2,1-f][1,2,4]triazin-5-yl)-N-(thiazol-2-yl)piperidine-3-carboxamide] | 6.14
NC(=O)Cn1cc(-c2cc(N3CCC[C@@H](NC(=O)c4ccc(Cl)s4)C3)c3c(N)ncnn23)nn1 [Example 865, (R)—N-(1-(4-amino-7-(1-(2-amino-2-oxoethyl)-1H-1,2,3-triazol-4-yl)pyrrolo[2,1-f][1,2,4]triazin-5-yl)piperidin-3-yl)-5-chlorothiophene-2-carboxamide] | 6.14
Cc1ccc(C(=O)N[C@@H]2CCCN(c3cc(C4=CCN(S(C)(=O)=O)C4)n4ncnc(N)c34)C2)s1 [Example 124, (R)—N-(1-(4-amino-7-(1-(methylsulfonyl)-2,5-dihydro-1H-pyrrol-3-yl)pyrrolo[2,1-f][1,2,4]triazin-5-yl)piperidin-3-yl)-5-methylthiophene-2-carboxamide] | 8.70
CS(=O)(=O)c1ccc(-c2cc(N3CCC[C@@H](NC(=O)c4cccc(C5CC5)c4)C3)c3c(N)ncnn23)cc1 [Example 82, (R)-N-(1-(4-amino-7-(4-(methylsulfonyl)phenyl)pyrrolo[2,1-f][1,2,4]triazin-5-yl)piperidin-3-yl)-3-cyclopropylbenzamide] | 7.82
Methyl (R)-3-(4-amino-5-(3- (5-(difluoromethyl)-3- morpholinothiophene-2- carboxamido)piperidin-1- yl)pyrrolo[2,1-f][1,2,4]triazin- 7-yl)-2,5-dihydro-1H-pyrrole- 1-carboxylate [Example 320] | 7.60
Nc1ncnn2c(-c3ccc(NS(=O)(=O)c4cc(Cl)ccc4F)cc3)cc(N3CCC[C@@H](NC(=O)c4ccc(Cl)s4)C3)c12 [Example 346, (R)—N-(1-(4-amino-7-(4-((5-chloro-2-fluorophenyl)sulfonamido)phenyl)pyrrolo[2,1-f][1,2,4]triazin-5-yl)piperidin-3-yl)-5-chlorothiophene-2-carboxamide] | 7.10
CC(=O)N1CC=C(c2cc(N3CCC[C@@H](NC(=O)c4sc(C)nc4OC4CCNCC4)C3)c3c(N)ncnn23)C1 [Example 357E, (R)—N-(1-(7-(1-acetyl-2,5-dihydro-1H-pyrrol-3-yl)-4-aminopyrrolo[2,1-f][1,2,4]triazin-5-yl)piperidin-3-yl)-2-methyl-4-(piperidin-4-yloxy)thiazole-5-carboxamide] | 7.72
Cc1cc(-c2cc(N3CCC[C@@H](NC(=O)c4sc(Cl)cc4OCC(=O)N4CCCC4)C3)c3c(N)ncnn23)cnc1C#N [Example 421, (R)-N-(1-(4-amino-7-(6-cyano-5-methylpyridin-3-yl)pyrrolo[2,1-f][1,2,4]triazin-5-yl)piperidin-3-yl)-5-chloro-3-(2-oxo-2-(pyrrolidin-1-yl)ethoxy) thiophene-2-carboxamide] | 7.96

Reference: patent US20260250290A1 (BRISTOL-MYERS SQUIBB COMPANY, priority 2023, published 2026)
